Calls of active or inactive are those of the source. No cut-off for these calls is given here.
Columns and labels:
Staphylococcus aureus [1] = assay: Antimicrobial activity against Staphylococcus aureus 4222 with norA KLE 820(3) mutation; assay type: functional, organism-based
Staphylococcus aureus [2] = assay: Antimicrobial activity against Staphylococcus aureus 4222 with norA KLE mutation at 120 to 140 ug/ml; assay type: functional, organism-based

SMILES	Activity (Staphylococcus aureus [1])	Activity (Staphylococcus aureus [2])
COc1cc2c(cc1O)[C@@H]1Cc3cc(O)c(OC)cc3C(C2)N1C	inactive	–
COc1ccc2c(c1O)-c1c(OC)c(OC)cc3c1[C@H](C2)N(C)CC3	inactive	–
COc1ccc2c(c1OC)-c1c(OC)c(OC)cc3c1[C@H](C2)[N+](C)(C)CC3	inactive	–
COc1cc2c(cc1OC)-c1c(OC)c(OC)cc3c1[C@H](C2)N(C)CC3	inactive	–
COc1ccc2c(c1OC)CN(C)CCc1cc3c(cc1C(=O)C2)OCO3	inactive	–
COc1cc2c(cc1OC)C1Cc3cc(OC)c(OC)cc3[C@H](C2)N1C	inactive	–
COc1ccc2cc3[n+](cc2c1OC)CCc1cc2c(cc1-3)OCO2	–	Active
COc1ccc(CC2c3cc(OC)c(OC)cc3CCN2C)cc1OC (stereo not given)	inactive	–
CN1CCc2cc3c(cc2C(=O)Cc2cc4c(cc2C1)OCO4)OCO3	inactive	–
COc1cc2c(cc1OC)[C@@H]1Cc3ccc(OC)c(OC)c3CN1CC2	inactive	–
